Results taken from PubChem BioAssay (NCI).
Several values for one entry are separate records, joined by “and”; a condition that tells them apart may be missing. Equal values may be shown once.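 Grown in 96-well plates, cells were treated for 48 hours with each compound at five concentrations. Insufficient inhibition: endpoint recorded as highest concentration tested. The concentration for 50% growth inhibition is given as GI50. The concentration for full growth arrest is given as TGI.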

Key:
Test in all cases: inhibition of tumour cell growth, NCI panel, 48 h
A498 renal = system: A498 renal
CAKI-1 renal = system: CAKI-1 renal
HL-60(TB) leukemia = system: HL-60(TB) leukemia
HT29 colon = system: HT29 colon
SF-539 CNS = system: SF-539 CNS
SNB-19 CNS = system: SNB-19 CNS
MALME-3M melanoma = system: MALME-3M melanoma
IGROV1 ovarian = system: IGROV1 ovarian
NCI-H522 lung = system: NCI-H522 lung
OVCAR-5 ovarian = system: OVCAR-5 ovarian

SMILES	GI50 (A498 renal)	TGI (A498 renal)	GI50 (CAKI-1 renal)	TGI (CAKI-1 renal)	GI50 (HL-60(TB) leukemia)	TGI (HL-60(TB) leukemia)	GI50 (HT29 colon)	TGI (HT29 colon)	GI50 (SF-539 CNS)	TGI (SF-539 CNS)	GI50 (SNB-19 CNS)	TGI (SNB-19 CNS)	GI50 (MALME-3M melanoma)	TGI (MALME-3M melanoma)	GI50 (IGROV1 ovarian)	TGI (IGROV1 ovarian)	GI50 (NCI-H522 lung)	TGI (NCI-H522 lung)	GI50 (OVCAR-5 ovarian)	TGI (OVCAR-5 ovarian)
N/C(=N\OC(=O)c1ccccc1)C(C(=O)NOC(=O)c1ccccc1)C1CCCCC1 (configuration not stated)	14.8 µM	28.7 µM	0.5 µM	1.73 µM	2.38 µM	6.07 µM	16.1 µM	35.2 µM	7.22 µM	20.1 µM	15.4 µM	39.1 µM	10.1 µM	27.5 µM	1.66 µM	3.92 µM	2.82 µM	7.76 µM	14.6 µM	28.2 µM
CS(=O)(=O)c1ccc(Cl)c([N+](=O)[O-])c1	38.6 µM	> 100 µM	2.05 µM	4.3 µM	19.7 µM	47.6 µM	4.63 µM	17 µM	19.2 µM	34.4 µM	12.5 µM	25.5 µM	21 µM	44.9 µM	18 µM	45.1 µM	16.5 µM	33.5 µM	20.1 µM	36.1 µM
CC(C)N(C(=O)C12C3C4C1C1C2C3C41C(O)C(C)(C)C)C(C)C (configuration not stated)		> 50 µM		> 50 µM		> 50 µM		> 50 µM		> 50 µM		> 50 µM		> 50 µM		> 50 µM		> 50 µM		
COc1ccc([C@H]2CC(=O)N3CCCC3N2)cc1 (some centres not stated)		> 100 µM		> 100 µM		> 100 µM		> 100 µM		> 100 µM		> 100 µM		> 100 µM		> 100 µM		> 100 µM		> 100 µM
Cc1cc2c(C(C)C)c(O)c(O)c(C=Nc3cc(C(F)(F)F)ccc3Cl)c2c(O)c1-c1c(C)cc2c(C(C)C)c(O)c(O)c(C=Nc3cc(C(F)(F)F)ccc3Cl)c2c1O		> 100 µM		> 100 µM		78.5 µM		79.3 µM		> 100 µM		> 100 µM		95 µM		75 µM		45.4 µM		> 100 µM
C/C(=N\O)c1ccc(Nc2cc(-n3nnc4ccccc43)nc3ccccc23)cc1	7.25 µM	30.8 µM	4.26 µM	13.7 µM	10.6 µM	45.7 µM	5.89 µM	> 100 µM	19 µM	44.7 µM	19.9 µM	> 90.7 µM	11.2 µM	36.1 µM	12.9 µM	42.5 µM	6.39 µM	22.8 µM	8.49 µM	> 37.3 µM
C=C(C)C1CC2C(C)=C(OC(C)=O)C1n1c(=O)c3cc4ccccc4cc3c(=O)n12 (configuration not stated)		> 100 µM		> 100 µM		> 36 µM		> 100 µM		> 100 µM		> 100 µM		> 100 µM		> 100 µM		> 100 µM		> 100 µM
CSc1ccc(/C=C2\CNC/C(=C\c3ccc(SC)cc3)C2=O)cc1	35.2 µM and 33.2 µg/mL	159 µM and 118 µg/mL	90.3 mg/L	150 mg/L	15.2 mg/L	362 µM and 99.8 µg/mL	150 mg/L	> 117 µM and 150 µg/mL	15.2 mg/L	32.7 µM and 43.8 µg/mL	50.9 µM and 23.9 µg/mL	> 127 µM and 89.4 µg/mL	150 mg/L	> 371 µM and 150 µg/mL	26.3 mg/L	> 162 µM and 110 µg/mL	22.3 mg/L	> 161 µM and 63.5 µg/mL	150 mg/L	> 371 µM and 150 µg/mL
Nc1c(C(=O)Nc2ccc([As](=O)(O)O)cc2)cnc2nnnn12		> 100 µM		> 100 µM		> 100 µM		> 100 µM		> 100 µM		> 100 µM		> 100 µM		> 100 µM		> 100 µM		> 100 µM
COc1cc(C2c3cc4c(cc3[C@@H](Nc3ccc(N(C)C)cc3)[C@H]3COC(=O)C23)OCO4)cc(OC)c1O (some centres not stated)	0.643 µM	3.42 µM and 10.2 µM	0.311 µM	1.03 µM and 3.42 µM		2.51 µM	2.46 µM	4.64 µM and 11.3 µM	0.572 µM	1.62 µM and 2.41 µM	0.441 µM	11.2 µM and 11.8 µM	1.6 µM	12.1 µM and 15 µM	4.57 µM	14.7 µM and 19.9 µM	1.18 µM	2.29 µM and 2.56 µM	1.96 µM	6.21 µM and 16.2 µM
C/C(=N/N(C=O)C[n+]1ccccc1)C(CN(CC(C)C)CC(C)C)C(=O)Nc1ccc(C)cc1C (configuration not stated)		> 100 µM		> 100 µM		> 100 µM		> 100 µM		> 100 µM		> 100 µM		> 100 µM		> 100 µM		> 100 µM		> 100 µM
COc1ccc(Cl)cc1Nc1nc(C(F)(F)F)ccc1C(=O)NN	1.51 µM	63 µM	2.74 µM	22.7 µM	2.75 µM	18.6 µM	26.3 µM	> 100 µM	6.52 µM	> 30.7 µM	8.93 µM	> 100 µM	3.21 µM	30.2 µM	7.83 µM	> 85.1 µM	4.09 µM	> 100 µM	3.81 µM	> 100 µM
NS(=O)(=O)c1ccc(N2Cc3cc(Cl)ccc3OC3=C2C(=O)N(CC2CCCCC2)C3=O)cc1	1.26 µM	2.85 µM	1.24 µM	2.55 µM	0.283 µM	0.828 µM	0.392 µM	1.1 µM	1.47 µM	2.82 µM	1.6 µM	3.44 µM	1.3 µM	2.83 µM	1.34 µM	2.83 µM	0.273 µM	0.676 µM	1.76 µM	3.54 µM
Clc1ccccc1NN(Cc1ccccn1)c1ccccc1Cl		34.9 µM		91.9 µM		44 µM		29.4 µM		36.6 µM		79.7 µM		37.4 µM		42.2 µM		41.1 µM		45.7 µM
CN1CCCN(CCNc2nccc(-c3c(-c4cccc(O)c4)nc4sccn34)n2)S1(=O)=O	5.31 µM and 3.4 µM	17.5 µM and 12.6 µM	2.25 µM and 2.15 µM	23.5 µM and 16.3 µM	14.1 µM and 11.3 µM	38.3 µM and 32 µM	2.32 µM and 2.33 µM	42.2 µM and > 100 µM	18.7 µM and 22.2 µM	75 µM and > 100 µM	40 µM and 48.7 µM	75 µM and > 100 µM	0.0583 µM	3.91 µM	3.93 µM and 5.33 µM	16.6 µM and 43.6 µM	5.54 µM and 9.27 µM	27.2 µM and 42.1 µM	27 µM and 32.3 µM	75 µM and > 100 µM
COc1cc(-c2oc3ccccc3c(=O)c2O)cc(OC)c1OC		> 100 µM		> 100 µM		> 28.1 µM		> 100 µM		> 100 µM		> 100 µM		> 100 µM		> 100 µM		> 80.3 µM		> 100 µM
Cn1cc(C2=C(c3cn(C)c4ccc(N)cc34)C(=O)NC2=O)c2ccccc21	9.28 µM	> 25 µM	4.85 µM	> 25 µM	7.41 µM	> 25 µM	5.82 µM	> 25 µM	6.14 µM	24.4 µM	> 25 µM	> 25 µM	> 25 µM	> 25 µM	23.8 µM	> 25 µM	6.78 µM	> 25 µM	> 25 µM	> 25 µM
O=C(CCc1nc(=S)[nH][nH]1)NC12CC3CC(CC(C3)C1)C2		> 100 µM		> 100 µM		> 100 µM		> 100 µM		> 100 µM		> 100 µM		> 100 µM		> 100 µM		> 100 µM		> 100 µM
COc1ccc(-c2cc(-c3ccc(Cl)cc3)c(C#N)c(=O)n2CCCCC(=O)Nc2ccccc2N)cc1	1.79 µM	48.9 µM	2.52 µM	20.2 µM	2.08 µM	5.7 µM	3.44 µM	> 100 µM	19.4 µM	> 100 µM	22.2 µM	> 100 µM	4.7 µM	31.1 µM	4.9 µM	> 100 µM	7.04 µM	57.1 µM	10.8 µM	> 100 µM
O=c1nc(-c2ccccc2)c2c3c(cccn13)CCC2		> 100 µM		> 100 µM		> 100 µM		> 100 µM		> 100 µM		> 100 µM		> 100 µM		> 100 µM		> 100 µM		> 100 µM
Fc1cccc(Cl)c1C1SCc2nc3ccccc3n21 (configuration not stated)		> 100 µM		> 100 µM		33.2 µM		> 100 µM		44.4 µM		> 100 µM		45.8 µM		> 100 µM		87 µM		> 100 µM
Fc1cccc(COc2ccc(Nc3ncnc4sc(-c5ccco5)cc34)cc2Cl)c1	> 25 µM	> 25 µM	> 25 µM	> 25 µM	> 25 µM	> 25 µM	> 25 µM	> 25 µM	> 25 µM	> 25 µM	> 25 µM	> 25 µM	> 25 µM	> 25 µM	> 25 µM	> 25 µM	> 25 µM	> 25 µM	> 25 µM	> 25 µM
CC(C)n1c(/C=C/[C@@H](O)C[C@@H](O)CC(=O)O)c(-c2ccc(F)cc2)c2ccccc21	0.164 µM and 0.219 µM	0.527 µM and 0.848 µM	0.594 µM and 0.542 µM	2.99 µM and 2.69 µM	14.5 µM and 10.9 µM	55.2 µM and > 100 µM	12.8 µM and 15.6 µM	> 100 µM	25.7 µM and 10.5 µM	> 100 µM	4.23 µM and 1.32 µM	> 100 µM	26.7 µM and 27.4 µM	> 100 µM	2.99 µM and 2.68 µM	> 100 µM	0.995 µM and 0.999 µM	> 100 µM	18.5 µM and 26.6 µM	> 100 µM
S=C(N/N=C/c1cc(Cl)cc(Cl)c1)NC12CC3CC(CC(C3)C1)C2	2.19 µM	7.73 µM	3.6 µM	92.8 µM	> 100 µM	> 100 µM	> 58.3 µM	> 100 µM	8.85 µM	> 100 µM	5.99 µM	> 100 µM	5.12 µM	50.7 µM	8.8 µM	> 100 µM	> 63.4 µM	> 100 µM	13.6 µM	> 100 µM
COc1cc(/C=C2\CN(C)CC3=C2Nc2nc(SC)[nH]c(=O)c2C3c2cc(OC)c(OC)c(OC)c2)cc(OC)c1OC (configuration not stated)	9.58 µM	21.5 µM	2.15 µM	4.71 µM	2.26 µM	9.66 µM	2.35 µM	5.22 µM	3.64 µM	15.6 µM	8.65 µM	21.9 µM	2.82 µM	9.44 µM	3.1 µM	12.6 µM	2.04 µM	4.69 µM	4.83 µM	16.7 µM
COc1ccc2nc(-c3ccccc3)cc(Nc3cccc(/C(C)=N\O)c3)c2c1	11.8 µM	37.3 µM	3.23 µM	12.9 µM	> 100 µM	> 100 µM	28.2 µM	> 100 µM	6.61 µM	24.8 µM	32.9 µM	> 100 µM	4.29 µM	20.2 µM	24.4 µM	> 100 µM	73.9 µM	> 100 µM	33.7 µM	> 100 µM
Cc1cc2c(cc1C)NC1=C(N2)OC(c2c[nH]c3ccc(COc4ccccc4)cc23)C1=O (configuration not stated)		> 100 µM		> 100 µM		> 100 µM		> 100 µM		95.3 µM		> 100 µM		> 100 µM		> 100 µM		> 100 µM		> 100 µM
O=C(Nc1ccc(OC(F)(F)F)cc1)c1sccc1NCc1ccnc2ccccc12	3 µM	> 40.9 µM	1.75 µM	19.3 µM	1.78 µM	19.3 µM	3.36 µM	> 100 µM	4.3 µM	> 100 µM	13 µM	> 100 µM	1.85 µM	14.6 µM	1.68 µM	6.37 µM	3 µM	> 72 µM	7.73 µM	> 100 µM
CC1=C(C(=O)NC2CCCCC2)CC(C(=O)NC2CCCCC2)=C(C)N1		> 100 µM		> 100 µM		> 100 µM				> 100 µM		> 100 µM		> 100 µM		> 100 µM		> 100 µM		> 100 µM
